Experimental data reported in patent US8912355B2, “Linoleic phospholipids and uses thereof for inhibiting inflammatory and neurodegenerative processes” (University of Ottawa Heart Institute, priority 2009, dated 2014).
“Also recorded” adds a separate entry of the source.

Columns and labels:
ERK1/2 = assay: TNFα- or H2O2-induced ERK1/2 (MAPK) phosphorylation in SH-SY5Y cells, Western blot; type: cell-based, human; settings: for TNFα-induced ERK1/2 phosphorylation: TNFα 10 ng/ml
Method: (§1) Cells and Cell Culture—Human neuroblastoma (SH-SY5Y) cells were obtained from American Type Cell Culture (ATCC Number CRL-2266; Manassas, Va., USA). SH-SY5Y was cultured and maintained in F12:DMEM (1:1, v/v) media condition with 10% FBS and 1% penicillin/streptomycin in a 37° C./5% CO2 exchange condition. Passages 3-10 were used in the present study and confluent cells were subjected to stimulation with drugs for indicated times under serum-starved conditions.
(§2) Preparation of Phospholipid Vesicles—Phospholipid Vesicles in Phosphate-Buffered saline (PBS; 1 mg/mL) were prepared by sonication as previously described (8). Briefly, pure dilinoeoylphosphatidylcholine (DLPC) in chloroform was dried down under N2 and 1 mL of PBS was added by vortexing. The mix was then sonicated (Branson sonicator set at 100% duty cycle and 10% power) for 1 min. The sonicated preparation was incubated for 30 min at 37° C. in a water bath, and samples were resonicated for 5 min at 95% duty cycle and 10% power and filtered before use.
(§3) Western Blot Analysis—After incubation with drugs for the indicated times and doses, cells were washed twice with ice-cold PBS-T on ice. Cells were lysed by adding buffer [NaF 1 mmol/L, NaCl 5 mmol/L, EDTA 1 mmol/L, NP40 1 mmol/L (Roche Diagnostics, Indianapolis, Ind.), HEPES 10 mmol/L, pepstatin A 1 mg/mL, leupeptin 1 mg/mL, aprotinin 1 mg/mL, Na3VO4 1 mmol/L, and PMSF 1 mmol/L] and total protein was extracted. An equal amount of cell proteins were separated by 12% SDS-PAGE and were analyzed by Western blot using specific antibodies to TNFα, Aβ, APP, phospho-ERK1/2, ERK1/2, phospho-tau, tau, phospho-IκBα, IκBα, phospho-NF-κB and NF-κB. Blots for the similar experiments were also subjected to β-actin for a loading control. Band intensity was analyzed with the Alpha-Innotech Fluor Chem™ HD Imager.
Experiments were undertaken to determine if DLPC can block a tumor necrosis factor (TNFα) activation of MAPK in neuroblastoma cells. […]

tau = assay: Agonist-induced tau phosphorylation (AT8) in SH-SY5Y cells, Western blot; type: cell-based, human
Method: as §1, §2, §3
The effect of pro-inflammatory and oxidative stress agonists on tau phosphorylation were also evaluated in SH-SY5Y cells.

NF-κB [1] = assay: TNFα-induced NF-κB phosphorylation in SH-SY5Y cells, Western blot; type: cell-based, human
Method: as §1, §2, §3
The effect of a selective MAPK inhibitor, U0126, on a TNFα induction of MAPK and nuclear factor kappa B (NF-κB) was evaluated. […] TNFα induced a 3-fold increase in NF-κB phosphorylation in SH-SY5Y cells at 5 min after treatment (FIG. 4). DLPC blocked the increase in neuronal NF-κB phosphorylation by ˜50% over 5-30 min post treatment with TNFα.

IκBα [2] = assay: TNFα-induced IκBα phosphorylation and degradation in SH-SY5Y cells, Western blot; type: cell-based, human; settings: TNFα 10 ng/ml
Method: as §3, with “Blots for the similar experiments were also subjected to β-actin for a loading control.” left out

NF-κB [3] = assay: LPS- or TNFα-induced NF-κB phosphorylation in HepG2 cells, Western blot; type: cell-based, human; settings: for TNFα-induced activation of NF-κB (p-NF-κB): DLPC 12 μmol/L, DOPC 12 μmol/L or LA 25 μmol/L for 30 min, TNFα 10 ng/ml, 5 min
Method: HepG2 cells were pre-incubated with DLPC (12 μM) for 30 min. and then incubated with LPS (5 μg/ml) for 24 h in DMEM serum-depleted media. Phospho-IκBα and phospho-NF-kB (p-IκBα and p-NF-κB) expression were analyzed by Western blot.
as §3, with “Blots for the similar experiments were also subjected to β-actin for a loading control.” left out

NF-κB [4] = assay: LPS and TNFα induction of NF-κB in CaCO-2 cells (unpublished observations); type: cell-based; settings: CaCO-2 cell line; unpublished observations of the inventors
amyloid-β = assay: Amyloid-β secretion into conditioned media of SH-SY5Y cells, Western blot; type: cell-based, human
Method: SH-SY5Y cells were pretreated with DLPC (12 μM) for 30 minutes and then incubated with LPS (100 ng/mL) for 24 h. Conditioned media from each experiment were collected and subjected to Western blot analysis for amyloid-β. Loading volumes were adjusted relative to total cell protein. Histograms representing densitometry analysis of amyloid-(3 and are expressed as mean±SEM of at least 3 independent experiments. *P<0.001 vs control and **P<0.001 vs LPS alone.
as §1, with “conditions. […]” for “conditions.”
Aβ quantification—Aβ immuno-quantification was performed in conditioned media after incubation with the inhibitors/agonists and/or phospholipids for the indicated times and doses. […] Band intensities were analyzed using the Spot-densitometer application of the AlphaEaseFC software and values were corrected with total cell proteins in cell lysates. […] Total protein concentration was determined using the BCA protein assay (Pierce, Rockford, Ill.) in cell lysate. […]

TLR-4 = assay: LPS-induced TLR-4 expression in HepG2 cells, Western blot; type: cell-based, human; settings: DLPC 12 μmol/L 30 min, LPS 5 μg/ml, 24 h
Method: (§4) HepG2 cells were pre-incubated with DLPC (12 μmol/L) for 30 min. and then incubated with LPS (5 μg/ml) for 24 h in DMEM serum-depleted media. Cell lysates were analyzed for TLR-4 expression by Western blot. Values are presented relative to β-actin and are expressed as mean±SEM for 3 replicate experiments. *P<0.05 vs LPS alone.
as §3

Kupffer cells = Kupffer cells of ethanol-fed rats; cited from earlier work
IκBα [5] = assay: LPS-induced IκBα phosphorylation in HepG2 cells, Western blot; type: cell-based, human; settings: DLPC 12 μM 30 min, LPS 5 μg/ml, 24 h
Method: HepG2 cells were pre-incubated with DLPC (12 μM) for 30 min. and then incubated with LPS (5 μg/ml) for 24 h in DMEM serum-depleted media. Phospho-IκBα and phospho-NF-kB (p-IκBα and p-NF-κB) expression were analyzed by Western blot. Histograms represent densitometry analysis of p-IκBα (A) and p-NF-κB (B) and values are shown relative to β-actin and are expressed as mean±SEM of 3 replicate experiments. *P<0.05 vs LPS alone.
as §3

TNFα = assay: LPS-induced TNFα expression in HepG2 cells, Western blot; type: cell-based, human; settings: DLPC 12 μmol/L 30 min, LPS 5 μg/ml, 24 h
Method: as §4, with “min” for “min.”, “TNFα” for “TLR-4”
as §3

[6] = test system: amyloid precursor protein (APP); assay: Basal amyloid precursor protein expression in SH-SY5Y cells, Western blot; type: cell-based, human; settings: unstimulated SH-SY5Y; DLPC 12 μM, 24 h
Method: SH-SY5Y cells were incubated with DLPC (12 μM) for 24 h and APP expression was analyzed in total cell lysates by Western blotting. Histograms representing densitometry analysis of APP and the values are presented relative to total β-actin control and are expressed as mean±SEM of at least 3 independent experiments. *P<0.05 vs control.
as §1
Preparation of Phospholipid Vesicles—Phospholipid Vesicles in Phosphate-Buffered saline (PBS; 1 mg/mL) were prepared by sonication as previously described (8). […]
Western Blot Analysis—After incubation with drugs for the indicated times and doses, cells were washed twice with ice-cold PBS-T on ice. […] An equal amount of cell proteins were separated by 12% SDS-PAGE and were analyzed by Western blot using specific antibodies to TNFα, Aβ, APP, phospho-ERK1/2, ERK1/2, phospho-tau, tau, phospho-IκBα, IκBα, phospho-NF-κB and NF-κB. […] Band intensity was analyzed with the Alpha-Innotech Fluor Chem™ HD Imager.

[7] = inhibitor 10 μM pretreatment 30 min
[8] = 10 μM pretreatment 30 min, TNFα 10 ng/ml
[9] = DLPC 12 μM 30 min, TNFα 10 ng/ml

SMILES: N#CC(=C(/N)Sc1ccccc1N)/C(C#N)=C(\N)Sc1ccccc1N [U0126, reference compound]
- TNFα-induced ERK1/2 phosphorylation (ERK1/2; [7]): blocked the phosphorylation of ERK1/2
- TNFα-induced phosphorylation of tau (AT8) (tau; U0126 10 μM pretreatment 30 min, TNFα 10 ng/ml, 5 min): completely blocked
- reduction of TNFα-induced NF-κB phosphorylation (NF-κB [1]; [8]): ~50%
- reduction of TNFα-induced IκBα phosphorylation (IκBα [2]; 10 μM pretreatment 30 min): ~50%

SMILES: CCCCCCCC/C=C\CCCCCCCC(=O)OC[C@H](COP(=O)([O-])OCC[N+](C)(C)C)OC(=O)CCCCCCC/C=C\CCCCCCCC [DOPC, dioleoyl phosphatidylcholine, reference compound]
- TNFα-induced activation of NF-κB (p-NF-κB) (NF-κB [3]): no impact

SMILES: CCCCC/C=C\C/C=C\CCCCCCCC(=O)OC[C@H](COP(=O)([O-])OCC[N+](C)(C)C)OC(=O)CCCCCCC/C=C\C/C=C\CCCCC [DLPC, dilinoleoylphosphatidylcholine]
- LPS and TNFα induction of NF-κB (NF-κB [4]): can block an LPS and TNFα induction of NF-κB
- LPS-induced NF-κB phosphorylation / activation (NF-κB [3]; DLPC 12 μM 30 min, LPS 5 μg/ml, 24 h): inhibits LPS-induced IkBα and NF-κB phosphorylation after 24 h; also recorded: inhibits activation of NF-κB in HepG2 cells for up to 24 h
- TNFα-induced activation of NF-κB (p-NF-κB) (NF-κB [3]): block activation of NF-κB
- LPS-induced increase in Aβ secretion (amyloid-β; DLPC 12 μM 30 min, LPS 100 ng/mL, 24 h): completely blocked
- decrease of basal secretion of Aβ (amyloid-β; DLPC 12 μM, 24 h conditioned media): 65%
- hydrogen peroxide induction of MAPK (ERK1/2; DLPC): block a hydrogen peroxide induction of MAPK
- TNFα-induced ERK1/2 phosphorylation (ERK1/2; DLPC 12 μM pre-incubated 30 min): block ERK1/2 phosphorylation for 30 min
- LPS-induced increase in TLR-4 expression (TLR-4): blocks an LPS-induced increase in TLR-4 expression
- NF-κB activation (Kupffer cells): decreases induction of TNFα secretion and NF-κB activation
- induction of TNFα secretion (Kupffer cells): decreases induction of TNFα secretion
- LPS-induced IκBα phosphorylation (IκBα [5]): inhibits LPS-induced IkBα and NF-κB phosphorylation after 24 h
- LPS-induced increase in TNFα expression (TNFα): inhibits an LPS-induced increase in TNFα expression
- LPS-induced tau phosphorylation (tau; DLPC 12 μM 30 min, LPS 100 ng/ml): blocked the effect both agonists and gave rise to tau phosphoylation levels lower than control values by 30 min
- TNFα-induced tau phosphorylation (tau; [9]): blocked the effect both agonists and gave rise to tau phosphoylation levels lower than control values by 30 min
- TNFα-induced NF-κB phosphorylation (NF-κB [1]; [9]): inhibited TNFα-induced NF-κB phosphorylation
- block of the TNFα-induced increase in neuronal NF-κB phosphorylation (NF-κB [1]; DLPC 12 μM, 5-30 min post treatment with TNFα): ~50%
- IκBα degradation (IκBα [2]; DLPC 12 μM 30 min): prevented IkBα degradation
- TNFα-induced IκBα phosphorylation (IκBα [2]; DLPC 12 μM 30 min): blocked TNFα-induced IkBα phosphorylation
- decrease of basal expression of amyloid precursor protein (APP) [6]: ~25%

SMILES: CS/C(N)=C(C#N)/C(C#N)=C(\N)SC [U0124, reference compound]
- TNFα-induced ERK1/2 phosphorylation (ERK1/2; [7]): no effect
- NF-κB phosphorylation status (NF-κB [1]; [8]): no effect
